Measurements published in patent US20230392121A1, “HYDROGELS FOR CELL CULTURE” (KATHOLIEKE UNIVERSITEIT LEUVEN, priority 2020, published 2023).
Where two headings read alike, the source gives them in different places.

Key:
HepMat co-cultures [1] = assay: Co-treatment of HepMat co-cultures with OA & OCA or OA & ELN; type: cell-based, human; conditions: 800 μM OA with 1 μM OCA or 30 μM ELN, 3 days
Procedure: A similar effect was observed on proinflammatory parameters.
(§1) Oleic acid (OA) exposure of HepMat-co-cultures and mono-cultures: Day 32 HepMat co-cultures and Day 32 HepMat HC3x HLC, HSC and Mφ mono-cultures were incubated with 800 μM of OA (Sigma-Aldrich) for 7 days (addition on day 0 and day 3). Day 32 HepMat co-cultures were also incubated with a combination 800 μM of OA and 1 μM Obeticholic acid (OCA) (Company) or 800 μM of OA and 30 μM Elafibranor (ELN) (Company) for 3 days (addition on day 0 only). Expression of inflammatory and fibrogenic genes was determined by RT-1PCR. Supernatants were collected for pro-collagen measurement by ELISA on day 3 and day 7. In addition, co-culture were assayed for presence of steatosis by BODIPY® staining on day 3 and day 7 as follows: Gels were transferred to Glass Bottom plates (cellvis) for live-cell imaging, following incubation with BODIPY® 493/503 for lipids (Thermo Fisher Scientific) and Hoechst (Sigma Aldrich). Sample was visualised and scanned on a laser scanning confocal microscope (LSM 880, Zeiss, Germany),
(§2) The supernatant was assayed for human TNF-alpha, ILla1pha, and IL6 by ELISA (Biolegend, CA, USA), according to the manufacturer's instructions. Presence of pro-collagen type I was detected by Pro-collagen Type I C-peptide ELISA kit (Takara Bio Inc). Secreted level of TNF-alpha, IL1alpha, IL6 and pro-collagen 1 were normalised for the cell number.

[2] = phase III; cited from earlier work
iETV2-ECs [3] = assay: Oleic acid treatment of iETV2-ECs; type: cell-based, human; conditions: OA treatment
Procedure: (§3) d32 HepMat co-cultures were also exposed to 0.8 mM OA for 3 days (1 dose) and 7 days (2 doses).

[4] = test system: HC3x HLC, HSC and Mφ mono-cultures; assay: Oleic acid exposure of HepMat mono-cultures; type: cell-based, human
Procedure: as §3, §1
The supernatant was assayed for human TNF-alpha, ILla1pha, and IL6 by ELISA (Biolegend, CA, USA), according to the manufacturer's instructions. Presence of pro-collagen type I was detected by Pro-collagen Type I C-peptide ELISA kit (Takara Bio Inc). […]

HepMat co-cultures [5] = assay: Oleic acid exposure of HepMat co-cultures (BODIPY, RT-qPCR, ELISA); type: cell-based, human
Procedure: as §3, §1, §2

HepMat co-cultures [6] = assay: TGFβ exposure of HepMat co-cultures (RT-qPCR, ELISA); type: cell-based, human
Procedure: (§4) It was investigated whether HepMat co-cultures could be used to model liver fibrosis/steatosis, by exposing cultures either to TGFβ or oleic acid (OA). d32 HepMat co-cultures were treated with 25 ng/ml of TGFβ for an additional 3 days (single administration) or 7 days (2 administrations). […] In addition, TGFβ induced a 7±0.4-fold higher level of pro-collagen and 17±3.4-fold higher level of IL6 on day 7 of treatment in HepMat co-culture supernatants. Pro-collagen levels were unchanged in HC3x-HLCs and PSC-Mφ mono-cultures and ±3-fold increase in PSC-HSCs following 3 and 7 days of treatment with TGFβ.
(§5) TGFβ exposure of HepMat-co-cultures and mono-cultures: Day 32 HepMat co-cultures and dayy 32 HepMat HC3x HLC, HSC and Mφ mono-cultures were incubated with 25 ng/ml TGFβ for 7 days (addition on day 0 and day 3). Expression of inflammatory and fibrogenic genes was determined by RT-qPCR. Supernatants were collected for pro-collagen measurement by ELISA.
as §2

iETV2-ECs [7] = type: cell-based, human
PSC-HSCs [8] = assay: TGFβ exposure of PSC-HSC HepMat mono-cultures (3 and 7 days); type: cell-based, human
Procedure: as §4, §5, §2

PSC-HSCs [9] = assay: TGFβ exposure of HepMat-PSC-HSC cultures (24 h); type: cell-based, human; conditions: 25 ng/mL TGFβ
Procedure: Day 12 HSC expressed ACTA2, PDG1FRα, COL1A1, COL3A1, COL5A2 and LOXL2 but low levels of LRAT (important for Vitamin-A metabolism in quiescent HSCs) and the more recently identified non-fibrotic HSC marker genes, RGS5 and IGFBP5 (FIGS. 3B and 3E). Accutase-harvested d12 PSC-HSCs were embedded at 3×10^5 cells/10 μl HepMat hydrogel, and maintained for 32 days in HSC medium. HSCs survived for 32 days in the HepMat hydrogel (Calcein-AM staining; FIG. 3B). […] Consistently, HSCs cultured in HepMat hydrogels stored retinol, as shown by BODIPY® staining and presence of typical blue autofluorescence elicited by UV light, even when cultured with low concentrations of palmitic acid (FIG. 3B). […] Thus, PSC-HSCs can be maintained for at least 32 days in the HepMat hydrogels. Moreover, culture of HSCs in these hydrogels may at least in part induce a less fibrotic HSC phenotype while still allowing TGFβ-mediated activation.
TGFβ exposure of HepMat-PSC-HSC cultures: Day 32 HepMat-PSC-HSC mono-cultures hydrogels were exposed to 25 ng/ml of TGFβ (Peprotech) on day 32. Expression of inflammatory and fibrogenic genes was determined by RT-1PCR. Supernatants were collected for pro-collagen measurement by ELISA.

HC3x-HLCs = assay: TGFβ exposure of HC3x-HLC HepMat mono-cultures; type: cell-based, human
Procedure: as §4, §5, §2

PSC-Mφs [10] = assay: TGFβ exposure of PSC-Mφ HepMat mono-cultures; type: cell-based, human; conditions: supernatants
Procedure: as §4, §5, §2

PSC-Mφs [11] = assay: LPS exposure of HepMat-PSC-Mφ cultures; type: cell-based, human; conditions: 100 ng/ml LPS
Procedure: Mφs were generated from PSCs, using a protocol adapted from van Wilgenburg et al. (2013) PLoS One. 8, e71098 (FIG. 3C). […] Thus, PSC-Mφs could also be functionally maintained for at least 32 days in HepMat hydrogels.
LPS exposure of HepMat-PSC-MEs cultures: Day 32 HepMat-PSC-M[…]s mono-cultures were exposed to 100 ng/ml of LPS (Sigma-Aldrich). Expression of inflammatory genes was determined by RT-qPCR. Supernatants were collected for inflammatory cytokine measurement by ELISA.

[12] = 25 ng/ml TGFβ, d32 HepMat co-cultures

CSc1ccc(C(=O)/C=C/c2cc(C)c(OC(C)(C)C(=O)O)c(C)c2)cc1 [ELN, elafibranor]
COL1A1 transcript levels (HepMat co-cultures [1]): inhibited | IL6 transcripts (HepMat co-cultures [1]): significantly reduced | bodipy staining (HepMat co-cultures [1]): significant reduction | pro-collagen secretion in culture supernatants (HepMat co-cultures [1]): no effect | production of secreted IL6 (HepMat co-cultures [1]): did not inhibit | improvement of liver fibrosis compared to placebo [2]: not significantly improve

CCCCCCCC/C=C\CCCCCCCC(=O)O [OA, oleic acid]
survival of iETV2-ECs (iETV2-ECs [3]): did not survive | pro-collagen or inflammatory cytokines in supernatants ([4]; any of the mono-cultures): no significant changes | induction in COL1A1 and COL3A1 transcripts ([4]; mono-cultures, 3 days after OA addition): ~9 fold | IL6 expression (HepMat co-cultures [5]; 0.8 mM OA, d3): 1200 fold | IL6 expression (HepMat co-cultures [5]; 0.8 mM OA, d7): 1000 fold | lipid accumulation, BODIPY staining (HepMat co-cultures [5]; 0.8 mM OA, day 3, persisted until day 7): significant lipid accumulation | induction of COL1A1, COL1A3, COL5A2 as well as LOXL2 (HepMat co-cultures [5]; 0.8 mM OA, day 7): even greater induction | increase in pro-collagen in supernatants (HepMat co-cultures [5]; 3 day after administration of OA): 5±0.5 fold | increase in pro-collagen in supernatants (HepMat co-cultures [5]; 7 day after administration of OA): 12±1.5 fold | increase in IL6 in supernatants (HepMat co-cultures [5]; day 7): 90±5 fold

TGFβ
increase in transcripts for COL1A1 (HepMat co-cultures [6]; [12]): 17±3.5 fold | increase in transcripts for COL3A1 (HepMat co-cultures [6]; [12]): 13±3.4 fold | increase in transcripts for COL5A2 or LOXL2 (HepMat co-cultures [6]; [12]): but not COL5A2 or LOXL2 | induction of IL1α transcripts (HepMat co-cultures [6]; TGFβ exposure for 7 days): 7±0.49 fold | induction of IL6 transcripts (HepMat co-cultures [6]; TGFβ exposure for 7 days): 13±4.3 fold | higher level of IL6 in supernatants (HepMat co-cultures [6]; day 7 of treatment, ELISA): 17±3.4 fold | higher level of pro-collagen in supernatants (HepMat co-cultures [6]; day 7 of treatment, ELISA): 7±0.4 fold | survival of iETV2-ECs (iETV2-ECs [7]): did not survive | increase in pro-collagen levels (PSC-HSCs [8]; 3 and 7 days of treatment with TGFβ): ~3 fold | induction of COL1A1 and COL3A1 transcripts (PSC-HSCs [8]; d3): 4±1.1 fold | secreted levels of pro-collagen (PSC-HSCs [9]; ELISA): significantly higher levels | LRAT transcript levels (PSC-HSCs [9]; d32 HepMat HSCs): significant decrease | expression of COL1A1 (PSC-HSCs [9]; d32 HepMat HSCs): significant increase | induction of COL1A1 transcripts (HC3x-HLCs; 3 days treatment): 9±1.6 fold | induction of COL1A1 transcripts (HC3x-HLCs; 7 days treatment): 5±0.7 fold | Pro-collagen levels (HC3x-HLCs; TGFβ, supernatants): unchanged | Pro-collagen levels (PSC-Mφs [10]): unchanged

lipopolysaccharide [LPS]
secretion of TNFα, IL1α and IL6 (PSC-Mφs [11]; ELISA, significant for IL6): increased secretion of all three cytokines | expression of TNFα, IL1α and IL6 (PSC-Mφs [11]; additional 48 hours, RT-qPCR): significantly induced
